Columns and labels:
BRD4(1) = molecular target: T1, BRD4(1) (Homo sapiens, UniProt O60885); assay: Binding assay BRD4/acetylated peptide H4 (TR-FRET/HTRF protein-protein interaction assay); settings: inhibition of interaction BRD4(1) / acetylated histone H4 peptide, TR-FRET
T1 construct: BRD4(1) (amino acids 44-168); made in house; host or cells: E. coli
From the text: Binding Assay BRD4/Acetylated Peptide H4 (“PRQ”)
To assess the BRD4 binding strength of the substances described in this application, their capacity for dose-dependent inhibition of the interaction between BRD4 and acetylated histone H4 was quantified.
For this purpose, a time-resolved fluorescence resonance energy transfer (TR-FRET) assay was used, which measures the binding between N-terminally His6-tagged BRD4(1) (amino acids 44-168) and a synthetic acetylated histone H4 (Ac-H4) peptide with the sequence GRGK(Ac)GGK(Ac)GLGK(Ac)GGAK(Ac)RHGSGSK-biotin. The recombinant BRD4 protein (produced in-house) was expressed in E. coli and was purified by (Ni-NTA) affinity chromatography and (Sephadex G-75) size-exclusion chromatography. The Ac-H4 peptide can be purchased for example from Biosyntan (Berlin, Germany).
In the assay, typically 11 different concentrations of each substance (0.1 nM, 0.33 nM, 1.1 nM, 3.8 nM, 13 nM, 44 nM, 0.15 μM, 0.51 μM, 1.7 μM, 5.9 μM and 20 μM) were measured as duplicates on the same microtitre plate. For this, 100-fold concentrated solutions in DMSO were prepared by serial dilutions (1:3.4) of a 2 mM stock solution in a clear, 384-well microtitre plate (Greiner Bio-One, Frickenhausen, Germany). From this, 50 nl was transferred to a black assay plate (Greiner Bio-One, Frickenhausen, Germany). The assay was started by supplying 2 μl of a 2.5-fold concentrated BRD4 solution (usually 10 to 50 nM final concentration in the 5 μl of the reaction volume) in aqueous assay buffer [50 mM HEPES pH 7.5, 50 mM sodium chloride (NaCl), 0.25 mM CHAPS and 0.05% serum albumin (BSA)] to the substances in the assay plate. This was followed by a 10-minute incubation step at 22° C. for the pre-equilibration of putative complexes between BRD4 and the substances.
The mixture was then incubated in the dark for one hour at 22° C. and then overnight at 4° C. The formation of BRD4/Ac-H4 complexes was determined by measuring the resonance energy transfer from the streptavidin-Eu-cryptate to the anti-6His-XL665 antibody that is present in the reaction. For this, the fluorescence emissions at 620 nm and 665 nm were measured after excitation at 330-350 nm in a TR-FRET measuring instrument, e.g. a Rubystar or Pherastar (both from BMG Lab Technologies, Offenburg, Germany) or a Viewlux (Perkin-Elmer). The ratio of the emissions at 665 nm and at […] was taken as an indicator of the amount of BRD4/Ac-H4 complexes formed.
The data obtained (ratio) were normalized, wherein 0% inhibition corresponded to the mean value from the measured values of a set of controls (usually 32 data points), in which all reagents were contained. 50 nl DMSO (100%) was used instead of test substances. Inhibition of 100% corresponded to the mean value from the measured values of a set of controls (usually 32 data points), in which all reagents except BRD4 were contained. The IC50 value was determined by regression analysis based on a 4-parameter equation (minimum, maximum, IC50, Hill; Y=Max+(Min−Max)/(1+(X/IC50)^Hill)) using Bayer's own analysis software.

[1] = Plasma concentrations from in-vivo tests and PK parameters; set-up: AUC(0-tlast): unit not given here; settings: mouse; for Plasma concentration: 50 mg/kg p.o.; for unbound exposure in comparison with comparative example V1: after single oral administration, by AUC(0-tlast),norm,u; for AUC(0-tlast),norm,u: AUCnorm multiplied by fu; for AUC(0-tlast),norm: dose-normalized; for tlast: last time point with measurable plasma concentration
Protocol: After thawing and shaking, the samples are centrifuged for 20 minutes at 4° C. and approx. 2000×g. An aliquot of the supernatant (approx. 25 μL) is measured by LCMS analysis. If high plasma or tissue levels are expected (>ULOQ, as a rule 5 μM) the precipitated samples are additionally diluted 1:100 with ACN/H2O (80/20, v/v)+internal standard and corresponding aliquots are measured by LCMS. For this, the test substance is added in 5-9 concentrations, corresponding to the determination range of the analytical method, to a control matrix (calibration samples), e.g. 0, 1, 10, 100, 1000, 5000 nM. For this, a portion of solid is weighed and is dissolved in DMSO (as a rule 1 mM stock solution). This stock solution is further diluted 1:10 with DMSO ([…]). Then 1:5 (v/v) ACN+internal standard (soln. A) is added to the calibration samples and processed further as with the plasma samples. The calibration series in solvent takes place similarly to the plasma calibration described. The test substance is in this case prepared in ACN/H2O (50/50, v/v) and then 1:5 (v/v) ACN+internal standard is added to the samples. This series serves for calibration of the diluted samples. The following PK parameters are calculated from these concentration-time profiles obtained: […]
AUC(0-tlast),norm multiplied by the free fraction (fu) of the species investigated.

MDA-MB-231 cells = assay: Cellular proliferation assay (alamarBlue) MDA-MB-231; assay type: cell-based; settings: Homo sapiens, 96 hours, read-out: Breast MDA-MB-231 IC50
Protocol: (§1) In accordance with the invention, the ability of the substances to inhibit the proliferation of various cell lines was determined. Cell viability was determined by means of the alamarBlue® reagent (Invitrogen). […] After incubation overnight at 37° C., the fluorescence values were determined (CI values). […] Then the fluorescence values were determined (CO values).
(§2) The substances were investigated in the cell lines in Table 1, which for example represent the stated indications: […]

VCaP cells = assay: Cellular proliferation assay (alamarBlue) VCaP; assay type: cell-based; settings: Homo sapiens, 168 hours, read-out: Prostate VCaP IC50
Protocol: as §1, §2

B16F10 cells = assay: Cellular proliferation assay (alamarBlue) B16F10; assay type: cell-based; settings: Mus musculus, B16-F10, 96 hours, read-out: Melanoma B16F10 IC50
Protocol: as §1, §2

LNCaP cells = assay: Cellular proliferation assay (alamarBlue) LNCaP; assay type: cell-based; settings: Homo sapiens, 168 hours, read-out: Prostate LNCaP IC50
Protocol: as §1, §2

MOLP-8 cells = assay: Cellular proliferation assay (alamarBlue) MOLP-8; assay type: cell-based; settings: Homo sapiens, 120 hours, read-out: Multiple myeloma MOLP-8 IC50
Protocol: as §1, §2

MOLM-13 cells = assay: Cellular proliferation assay (alamarBlue) MOLM-13; assay type: cell-based; settings: Homo sapiens, 96 hours, read-out: Leukaemia MOLM-13 IC50
Protocol: as §1, §2

SMILES | IC50 (BRD4(1)) [nM] | unbound exposure in comparison with comparative example V1 [1] | IC50 (MDA-MB-231 cells) [nM] | IC50 (VCaP cells) [nM] | IC50 (B16F10 cells) [nM] | IC50 (LNCaP cells) [nM] | IC50 (MOLP-8 cells) [nM] | IC50 (MOLM-13 cells) [nM] | further results
Cc1sc2c(c1C)C(c1ccc(Cl)cc1)=N[C@@H](CC(=O)N1CC3(COC3)C1)c1nnc(C)n1-2 [Example 2, 2-[(S)-4-(4-Chlorophenyl)-2,3,9-trimethyl-6H-thieno[3,2-f][1,2,4]triazolo[4,3-a][1,4]diazepin-6-yl]-1-(2-oxa-6-azaspiro[3.3]hept-6-yl)ethan-1-one] | 27 | higher unbound exposure | 117 | 58 | 82 | 80 | 64 | 98 | Plasma concentration ([1]; 1 h): 1366.5 ng/mL; Plasma concentration ([1]; 3 h): 2694.4 ng/mL; Plasma concentration ([1]; 6 h): 1111.0 ng/mL; AUC(0-tlast) ([1]; single oral dose 50 mg/kg): 10; AUC(0-tlast),norm,u ([1]; single oral dose 50 mg/kg): 0.050 kg·h/L; AUC(0-tlast),norm ([1]; single oral dose 50 mg/kg): 0.20 kg·h/L; tlast ([1]; single oral dose 50 mg/kg): 6.0 h
Cc1sc2c(c1C)C(c1ccc(Cl)cc1)=N[C@@H](CC(=O)N1C3CCC1CC(=O)C3)c1nnc(C)n1-2 [Example 1, 8-{2-[(S)-4-(4-Chlorophenyl)-2,3,9-trimethyl-6H-thieno[3,2-f][1,2,4]triazolo[4,3-a][1,4]diazepin-6-yl]acetyl}-8-azabicyclo[3.2.1]octan-3-one] | 28 | higher unbound exposure | 110 | 39 | 97 | 90 | 70 | 91 | concentration at 1 h ([1]; in vivo, po, 100 mg/kg p.o., 1 h): 1470 ng/mL; AUC(0-tlast) ([1]; single oral dose 100 mg/kg): 4.9; AUC(0-tlast),norm,u ([1]; single oral dose 100 mg/kg): 0.006 kg·h/L; AUC(0-tlast),norm ([1]; single oral dose 100 mg/kg): 0.05 kg·h/L; tlast ([1]; single oral dose 100 mg/kg): 24 h; concentration at 3 h ([1]; plasma, po, 100 mg/kg p.o., 3 h): 836 ng/mL; concentration at 6 h ([1]; plasma, po, 100 mg/kg p.o., 6 h): 176 ng/mL; concentration at 24 h ([1]; plasma, po, 100 mg/kg p.o., 24 h): 1.56 ng/mL

— US20140213575A1, “6H-Thieno[3,2-f][1,2,4]triazolo[4,3-a][1,4]diazepines” (BAYER INTELLECTUAL PROPERTY GMBH, priority 2011, published 2014)
